In brackets after ≈: the same amount, converted by molar mass. Where two headings read alike, the source gives them in different places.
Columns and labels:
Experiment in all cases: in vitro antibacterial activity, minimal inhibitory concentration
Type in all cases: cell-based
[1] = tested on: E. coli Vogel; details: for MIC: Escherichia coli
Text: (§1) The compounds of the invention are new chemical compounds that are used as pharmacological agents and especially as broad spectrum antibacterial agents. They are active in vitro against strains of both gram-positive and gram-negative bacteria.
(§2) Minimal Inhibitory Concentration (μg/ml)

[2] = tested on: Serr. marces.
Text: as §1, §2

[3] = tested on: Pseudomonas UI 18; details: UI18; Pseudomonas UI 18, in vitro
Text: as §1, §2

[4] = tested on: Strep. fec.
Text: as §1, §2

[5] = tested on: Staph. aureus UC-76; details: Staph. aureus UC-76, in vitro; for MIC: Staphylococcus aureus, UC76
Text: as §1, §2

[6] = tested on: Pseudomonas #28; details: read-out: Minimal Inhibitory Concentration
Text: as §1, §2

[7] = tested on: Pseudomonas BRK 12-4-4; details: Pseudomonas BRK 12-4-4, in vitro; for MIC: BRK1244
Text: as §1, §2

[8] = tested on: Klebs. pneu.
Text: as §1, §2

[9] = tested on: Staph. aureus S18733; details: for MIC: Staphylococcus aureus
Text: as §1, §2

[10] = tested on: E. coli Brig; details: for MIC: Escherichia coli
Text: as §1, §2

[11] = tested on: Prot. vulg.
Text: as §1, §2

[12] = tested on: Entero. cloacae; details: for MIC: Enterobacter cloacae
Text: as §1, §2

Row | Structure (SMILES) | MIC [1] [µg/mL] | MIC [2] [µg/mL] | MIC [3] [µg/mL] | MIC [4] [µg/mL] | MIC [5] [µg/mL] | MIC ([6]; Pseudomonas #28, in vitro) [µg/mL] | MIC [7] [µg/mL] | MIC [8] [µg/mL] | MIC [9] [µg/mL] | MIC [10] [µg/mL] | MIC [11] [µg/mL] | MIC [12] [µg/mL] | further results
1 | CC(=O)NC(CC(C)C)C(=O)Nc1ccc(-c2ncc(C(=O)N[C@@H](C(=O)N[C@@H]3C(=O)N4C(C(=O)O)=C(COC(C)=O)CS[C@H]34)c3ccccc3)c(O)n2)cc1 (mixture of isomers) [Example 4, N-[2-[4-(N-Acetyl-DL-leucylamino)phenyl]-4-hydroxy-5-pyrimidinylcarbonyl]-7-[D-2-amino-2-phenylacetamido]-3-acetoxymethyl-3-cephem-4-carboxylic acid] | 6.3 | > 50 | 12.5 | 50 | 1.6 | 12.5 | 12.5 | 25 | 6.3 | 25 | 25 | 25 | –
2 | CSCCC(NC(C)=O)C(=O)Nc1ccc(-c2ncc(C(=O)N[C@@H](C(=O)N[C@@H]3C(=O)N4C(C(=O)O)=C(COC(C)=O)CS[C@H]34)c3ccccc3)c(O)n2)cc1 (mixture of isomers) [Example 5, N-[2-[4-(N-Acetyl-DL-methionylamino)phenyl]-4-hydroxy-5-pyrimidinylcarbonyl]-7-[D-2-amino-2-phenylacetamido]-3-acetoxymethyl-3-cephem-4-carboxylic acid] | 6.3 | > 50 | 6.3 | 50 | 1.6 | 3.1 | 6.3 | 12.5 | 3.1 | 25 | 25 | 25 | –
3 | CC(=O)OCC1=C(C(=O)O)N2C(=O)[C@@H](NC(=O)[C@H](NC(=O)c3cnc(-c4ccc(NC(=O)C5CCC(=O)N5)cc4)nc3O)c3ccccc3)[C@H]2SC1 (mixture of isomers) [Example 6, N-[2-]4-((5-oxo-DL-prolyl)amino)phenyl]-4-hydroxy-5-pyrimidinylcarbonyl]-7-[D-2-amino-2-phenylacetamido]-3-acetoxymethyl-3-cephem-4-carboxylic acid] | 12.5 | > 50 | 12.5 | 50 | 1.6 | – | 12.5 | 25 | 6.3 | 50 | 50 | 50 | MIC ([6]; Pseudomonas): 6.3 µg/mL
4 | CC(=O)NC(C)C(=O)Nc1ccc(-c2ncc(C(=O)N[C@@H](C(=O)N[C@@H]3C(=O)N4C(C(=O)O)=C(COC(C)=O)CS[C@H]34)c3ccccc3)c(O)n2)cc1 (mixture of isomers) [Example 8, N-[2-[4-(N-Acetyl-DL-alanylamino)phenyl]-4-hydroxy-5-pyrimidinylcarbonyl]-7-[D-2-amino-2-phenylacetamido]-3-acetoxymethyl-3-cephem-4-carboxylic acid] | 6.3 | > 50 | 6.3 | 50 | 1.6 | 6.3 | 12.5 | 6.3 | 1.6 | 25 | 50 | 50 | –
5 | CC(=O)NC(C)C(=O)Nc1ccc(-c2ncc(C(=O)N[C@@H](C(=O)N[C@@H]3C(=O)N4C(C(=O)O)=C(COC(C)=O)CS[C@H]34)c3ccc(O)cc3)c(O)n2)cc1 (mixture of isomers) [Example 9, N-[2-[4-(N-Acetyl-DL-alanylamino)phenyl]-4-hydroxy-5-pyrimidinylcarbonyl]-7-[D-2-amino-2-(4-hydroxyphenyl)acetamido]-3-acetoxymethyl-3-cephem-4-carboxylic acid] | 12.5 | > 50 | 3.1 | 50 | 3.1 | 1.6 | 3.1 | 12.5 | 6.3 | 50 | 12.5 | 50 | –
6 | CC(=O)NCCCCC(NC(C)=O)C(=O)Nc1ccc(-c2ncc(C(=O)N[C@@H](C(=O)N[C@@H]3C(=O)N4C(C(=O)O)=C(COC(C)=O)CS[C@H]34)c3ccccc3)c(O)n2)cc1 (mixture of isomers) [Example 12, N-[2-[4-(N^α,N^ω -Diacetyl-DL-lysylamino)phenyl]-4-hydroxy-5-pyrimidinylcarbonyl]-7-[D-2-amino-2-phenylacetamido]-3-acetoxymethyl-3-cephem-4carboxylic acid] | 6.3 | > 50 | 6.3 | 50 | 1.6 | 6.3 | 12.5 | 25 | 6.3 | 50 | 50 | 25 | –
7 | CC(=O)OCC1=C(C(=O)O)N2C(=O)[C@@H](NC(=O)[C@H](NC(=O)c3cnc(-c4ccc(NC(=O)C5CCCN5C(C)=O)cc4)nc3O)c3ccccc3)[C@H]2SC1 (mixture of isomers) [Example 13, N-[2-[4-(N-Acetyl-DL-prolylamino)phenyl]-4-hydroxy-5-pyrimidinylcarbonyl]-7-[D-2-amino-2-phenylacetamido]-3-acetoxy-methyl-3-cephem-4-carboxylic acid] | 12.5 | > 50 | 12.5 | 50 | 3.1 | 6.3 | 12.5 | 25 | 6.3 | 50 | 50 | 50 | –
8 | CC(=O)NC(CCC(N)=O)C(=O)Nc1ccc(-c2ncc(C(=O)N[C@@H](C(=O)N[C@@H]3C(=O)N4C(C(=O)O)=C(COC(C)=O)CS[C@H]34)c3ccccc3)c(O)n2)cc1 (mixture of isomers) [Example 14, N-[2-[4-(N-Acetyl-DL-glutaminylamino)phenyl]-4-hydroxy-5-pyrimidinylcarbonyl]-7-[D-2-amino-2phenylacetamido]-3-acetoxymethyl-3-cephem-4-carboxylic acid] | 6.3 | > 50 | 12.5 | 50 | 1.6 | 6.3 | 12.5 | 12.5 | 6.3 | 25 | 25 | 50 | –
9 | CC(=O)NC(C)C(=O)Nc1ccc(-c2ncc(C(=O)N[C@@H](C(=O)N[C@@H]3C(=O)N4C(C(=O)O)=C(COC(N)=O)CS[C@H]34)c3ccccc3)c(O)n2)cc1 (mixture of isomers) [Example 20, N-[2-[4-(N-Acetyl-DL-alanylamino)phenyl]-4-hydroxy-5-pyrimidinylcarbonyl]-7-[D-2-amino-2-phenylacetamido]-3-carbamoyloxymethyl-3-cephem-4-carboxylic acid] | 12.5 | > 50 | 6.3 | > 50 | 1.6 | 6.3 | 12.5 | 25 | 3.1 | 50 | 25 | > 50 | –
10 | CC(=O)NC(CCC(N)=O)C(=O)Nc1ccc(-c2ncc(C(=O)N[C@@H](C(=O)NC3C(=O)N4C(C(=O)O)=C(CSc5nnnn5C)CSC34)c3ccccc3)c(O)n2)cc1 (mixture of isomers) [Example 23, N-[2-[4-(N-Acetyl-DL-glutaminylamino)phenyl]-4-hydroxy-5-pyrimidinylcarbonyl]-7-[D-2-amino-2-phenylacetamido]-3-[[1-methyl-1H-tetrazol-5-yl)thio]methyl]-3-cephem-4-carboxylic acid] | 0.8 | 50 | 6.3 | 50 | 3.1 | 6.3 | 12.5 | 3.1 | 12.5 | 3.1 | 12.5 | 6.3 | –
11 | CC(=O)NCC(=O)Nc1ccc(-c2ncc(C(=O)N[C@@H](C(=O)N[C@@H]3C(=O)N4C(C(=O)O)=C(COC(C)=O)CS[C@H]34)c3ccccc3)c(O)n2)cc1 [Example 7, N-[2-[4-(N-Acetylglycylamino)phenyl]-4-hydroxy-5-pyrimidinylcarbonyl]-7-[D-2-amino-2-phenylacetamido]-3-acetoxymethyl-3-cephem-4-carboxylic acid] | – | – | 12.5 (≈ 17.4 µM) | 50 (≈ 69.7 µM) | – | – | – | 6.3 (≈ 8.78 µM) | – | – | – | 25 (≈ 34.8 µM) | –
12 | CC(=O)N1C[C@H](O)C[C@H]1C(=O)Nc1ccc(-c2ncc(C(=O)N[C@@H](C(=O)NC3C(=O)N4C(C(=O)O)=C(CSc5nnnn5CC(=O)O)CS[C@H]34)c3ccccc3)c(O)n2)cc1 (stereo partly drawn) [Example 36, N-[2-[4-(N-Acetyl-L-hydroxyprolylamino)phenyl]-4-hydroxy-5-pyrimidinylcarbonyl]-7-[D-2-amino-2-phenylacetamido]-3-[[(1-carboxymethyl-1H-tetrazol-5-yl)thio]methyl]-3-cephem-4-carboxylic acid] | – | – | – | – | – | – | – | – | – | – | – | – | Minimal Inhibitory Concentration [1]: 6.3 µg/mL; Minimal Inhibitory Concentration [2]: 50 µg/mL; Minimal Inhibitory Concentration [4]: > 50 µg/mL; Minimal Inhibitory Concentration [5]: 12.5 µg/mL; Minimal Inhibitory Concentration [7]: 12.5 µg/mL; Minimal Inhibitory Concentration [8]: 6.3 µg/mL; Minimal Inhibitory Concentration [9]: 25 µg/mL; Minimal Inhibitory Concentration [10]: 12.5 µg/mL; Minimal Inhibitory Concentration [11]: 6.3 µg/mL; Minimal Inhibitory Concentration [12]: 12.5 µg/mL
